The record followed here is patent US12187727B2, “Methods for antagonizing a melanocortin 4 receptor” (Pfizer Inc., priority 2020, dated 2025).

What is called Ki is the equilibrium dissociation constant of an inhibitor or competing ligand from its target.

A value given as a limit tells only on which side of the number the result lay.

For this assay, the target named is hMC4R (Homo sapiens (Human), UniProt P32245). The assay can be described thus: In vitro binding affinity assay using hMC4R (radioligand competition binding, [125I]-(Nle4, D-Phe7)-α-MSH). The note with it: geometric mean, read-out: Ki (nM) geometric mean. The protocol: Example AA. In Vitro Binding Affinity Assay Using hMC4R
hMC4R, sequence (P32245 whole entry): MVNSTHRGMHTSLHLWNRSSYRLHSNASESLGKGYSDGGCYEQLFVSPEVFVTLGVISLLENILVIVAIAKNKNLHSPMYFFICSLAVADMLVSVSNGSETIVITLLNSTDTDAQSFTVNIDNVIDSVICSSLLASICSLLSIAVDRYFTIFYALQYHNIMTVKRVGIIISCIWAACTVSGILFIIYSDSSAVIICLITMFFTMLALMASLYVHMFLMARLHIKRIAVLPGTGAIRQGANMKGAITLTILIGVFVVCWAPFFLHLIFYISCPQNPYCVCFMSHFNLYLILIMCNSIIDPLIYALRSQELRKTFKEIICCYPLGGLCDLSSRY
The binding affinity of test compounds at the […] (hMC4R) was assessed using a radioligand competition binding assay. […] Cell membranes were bulked and frozen until the assay was performed.
Compounds were solubilized in 100% dimethyl sulfoxide (DMSO) to a concentration of 30 mM. A 10-point intermediate dilution series using half log dilutions was created in 100% DMSO with a top concentration of 0.03 mM. […] The final compound range in the assay was 300 nM to 0.01 nM with a final DMSO concentration of 1%. […] The exact concentration of radioligand used for each experiment was determined by liquid scintillation counting and adjusted if necessary.
Frozen hMC4R cell membranes were thawed and Dounce homogenized. Homogenates were resuspended in assay buffer to a concentration of 2 μg per well. […] The plates were incubated for 2 hours at room temperature.
The raw data (expressed as counts per minute) were analyzed using ActivityBase (IDBS Data Management Software). […] Equilibrium dissociation constant for inhibitor of ligand and receptor interaction (Ki) values were then calculated from the IC50 values using the Cheng-Prusoff equation: Ki=IC50/(1+([L]/Kd)), where [L] is the concentration of the radioligand used in the experiment and Kd is the affinity of the radioligand (determined in separate saturation experiments).
(Loss of bound radioactivity is the signal in a displacement assay; it reports binding, not function.)
As for `Cc1nc2c(cc1-c1cnn(C)c1)CCC1(CCN(C(=O)Cc3ccc(F)cc3)C1)N2` (single isomer, unassigned) [Example 19, 2-(4-fluorophenyl)-1-[7-methyl-6-(1-methyl-1H-pyrazol-4-yl)-3,4-dihydro-1H-spiro[1,8-naphthyridine-2,3′-pyrrolidin]-1′-yl]ethan-1-one], the Ki is over 220 nM. Consider `Cc1nc2c(cc1-c1cnn(C)c1)CCC1(CCN(C(=O)Cc3ccc(F)cc3)C1)N2` (single isomer, unassigned) [Example 20, 2-(4-fluorophenyl)-1-[7-methyl-6-(1-methyl-1H-pyrazol-4-yl)-3,4-dihydro-1H-spiro[1,8-naphthyridine-2,3′-pyrrolidin]-1′-yl]ethan-1-one], for which the Ki came out at 0.6 nM. As for `COc1cc([C@@H](C)C(=O)N2CC[C@@]3(CCc4cc(-c5ncccn5)c(C)nc4N3)C2)c(C(F)F)cn1` (single isomer, unassigned) [Example 37], the Ki came out at 180 nM.

Turning to `Cc1nc2c(cc1-c1ncccn1)CC[C@@]1(CCN(C(=O)[C@H](C)c3cc(C(F)(F)F)ncc3Cl)C1)N2` (single isomer, unassigned) [Example 38], the Ki was over 200 nM. Turning to `COc1ccc([C@@H](C)C(=O)N2CC[C@@]3(CCc4cc(-c5ncccn5)c(C)nc4N3)C2)cc1F` (single isomer, unassigned) [Example 43], the Ki was determined as 43 nM.

For the compound `COc1cc([C@](C)(F)C(=O)N2CC[C@@]3(CCc4cc(-c5ncccn5)c(C)nc4N3)C2)ccn1` (single isomer, unassigned) [Example 47], the Ki stood at 20 nM. Consider `Cc1nc2c(cc1-c1ncccn1)CC[C@@]1(CCN(C(=O)[C@H](C)c3cc(OC(F)F)ncc3Cl)C1)N2` (single isomer, unassigned) [Example 59], for which the Ki was 99 nM. For the compound `COc1cc(OC(F)F)cc([C@@H](C)C(=O)N2CC[C@@]3(CCc4cc(-c5ncccn5)c(C)nc4N3)C2)c1` (single isomer, unassigned) [Example 61], the Ki stood at 40 nM. In the case of `Cc1nc2c(cc1-c1ncccn1)CC[C@@]1(CCN(C(=O)C(C)c3cc(OC(F)(F)F)ncc3Cl)C1)N2` (single isomer, unassigned) [Example 63], the Ki worked out at 94 nM. `Cc1nc2c(cc1-c1ncccn1)CC[C@@]1(CCN(C(=O)[C@H](C)c3cc(OC(F)(F)F)ncc3F)C1)N2` (single isomer, unassigned) [Example 75]: the Ki is 180 nM. For `Cc1nc2c(cc1-c1ncccn1)CC[C@@]1(CCN(C(=O)[C@H](C)c3cc(OC(F)F)ncc3F)C1)N2` (single isomer, unassigned) [Example 77], the Ki came out at 84 nM.

In the case of `Cc1nc2c(cc1-c1ncccn1)CC[C@@]1(CCN(C(=O)[C@H](C)c3cc(C(F)(F)F)ncc3F)C1)N2` (single isomer, unassigned) [Example 79], the Ki was over 250 nM. On to `Cc1nc2c(cc1-c1ncccn1)CC[C@@]1(CCN(C(=O)[C@H](C)c3cc(N(C)C)ncc3F)C1)N2` (single isomer, unassigned) [Example 82], for which the Ki worked out at 120 nM. As for `COc1cc([C@@H](C)C(=O)N2CC[C@@]3(CCc4cc(-c5ncccn5)c(C)nc4N3)C2)cc(OC)n1` (single isomer, unassigned) [Example 84], the Ki was 52 nM. `COc1ncc(Cl)c([C@@H](C)C(=O)N2CC[C@@]3(CCc4cc(-c5ncccn5)c(C)nc4N3)C2)n1` (single isomer, unassigned) [Example 85]: the Ki was over 250 nM. In the case of `COc1ncc(Cl)c([C@@H](C)C(=O)N2CC[C@@]3(CCc4cc(-c5ncccn5)c(C)nc4N3)C2)n1` (single isomer, unassigned) [Example 86], the Ki came out at 2.3 nM. Then `COc1cc(OC)cc([C@@H](C)C(=O)N2CC[C@@]3(CCc4cc(-c5cnn(C)c5)c(C)nc4N3)C2)c1` (single isomer, unassigned) [Example 91], with 17 nM; and `COc1cc(OC)cc([C@@H](C)C(=O)N2CC[C@@]3(CCc4ccc(C)nc4N3)C2)c1` (single isomer, unassigned) [Example 97], with 100 nM.
